Assay results: PMC12113707, “Microwave Assisted Synthesis of Antioxidant Dihydro-Pyrazole Hybrids as Possible Lipoxygenase Inhibitors” (Molecules, 2025)

Experiments:
[1] = Interaction with the stable free radical DPPH (reducing activity); settings: 517 nm
Method: In general, the compounds present moderate to good antioxidant activity. It seems that the dibenzylacetones present satisfactory antioxidant activity compared to the hybrids at 60 min (1b, 1d and 1f).
The tested compounds (0.1 mM final concentration) dissolved in DMSO were incubated with a solution of DPPH in absolute ethanol in absence of light. The absorbance at 20 and 60 min at 517 nm was recorded at room temperature. NDGA was used as the reference compound.

[2] = Inhibition of AAPH-induced linoleic acid peroxidation; settings: 37 °C, 234 nm
Method: The ability of the compounds to inhibit AAPH-induced peroxidation of linoleic acid is another assay to investigate the antioxidant properties of the compounds. Azo compounds such as 2,2′-azobis dihydrochloride (2-amidinopropane) (AAPH) are capable of generating free radicals through spontaneous decomposition at 37 °C. The R- radicals react immediately with air-oxygen to produce peroxy radicals. AAPH was therefore used as the radical initiator and sodium linoleate as substrate subjected to peroxidation. Measurements were carried out at 234 nm using a UV/V is spectrophotometer. Dichalcone 1i substituted with two phenyl groups presents the lowest lipophilicity. […] Therefore, hydrophilic substituents offer an increase in activity.
The interaction of free radicals with cell membrane lipids induces free radical chain reactions, a process called lipid peroxidation. 930 μL of a phosphate buffer solution (0.05 M, pH = 7.4), 10 μL of the sodium linolate solution (16 mM in a buffer solution of Tris-HCl pH = 9) and 10 μL of the tested compounds (stock solutions 100 μΜ) were mixed and the oxidative procedure started after the addition of 50 μL AAPH at 37 °C under air conditions. The conjugated diene’s absorbance was measured at 234 nm at a thermostable spectrophotometer (37 °C) according to previous publication.

[3] = molecular target: T1, soybean lipoxygenase (SLOX-1) (Glycine max, UniProt P08170); experiment: Inhibition of soybean lipoxygenase in vitro; type: biochemical; settings: pH 9, sodium linoleate substrate; for IC50: read-out: LOX IC50 (μM) (±SD); for inhibition at 100 µM: read-out: LOX% Inhibition, 100 μM (±SD)
T1 construct: 200 μL of plant-derived lipoxygenase solution (1:9 × 10^−4 w/v, in saline); purchased Sigma Chemical, Co; host or cells: soybean (plant-derived)
T1 sequence (P08170 1-839): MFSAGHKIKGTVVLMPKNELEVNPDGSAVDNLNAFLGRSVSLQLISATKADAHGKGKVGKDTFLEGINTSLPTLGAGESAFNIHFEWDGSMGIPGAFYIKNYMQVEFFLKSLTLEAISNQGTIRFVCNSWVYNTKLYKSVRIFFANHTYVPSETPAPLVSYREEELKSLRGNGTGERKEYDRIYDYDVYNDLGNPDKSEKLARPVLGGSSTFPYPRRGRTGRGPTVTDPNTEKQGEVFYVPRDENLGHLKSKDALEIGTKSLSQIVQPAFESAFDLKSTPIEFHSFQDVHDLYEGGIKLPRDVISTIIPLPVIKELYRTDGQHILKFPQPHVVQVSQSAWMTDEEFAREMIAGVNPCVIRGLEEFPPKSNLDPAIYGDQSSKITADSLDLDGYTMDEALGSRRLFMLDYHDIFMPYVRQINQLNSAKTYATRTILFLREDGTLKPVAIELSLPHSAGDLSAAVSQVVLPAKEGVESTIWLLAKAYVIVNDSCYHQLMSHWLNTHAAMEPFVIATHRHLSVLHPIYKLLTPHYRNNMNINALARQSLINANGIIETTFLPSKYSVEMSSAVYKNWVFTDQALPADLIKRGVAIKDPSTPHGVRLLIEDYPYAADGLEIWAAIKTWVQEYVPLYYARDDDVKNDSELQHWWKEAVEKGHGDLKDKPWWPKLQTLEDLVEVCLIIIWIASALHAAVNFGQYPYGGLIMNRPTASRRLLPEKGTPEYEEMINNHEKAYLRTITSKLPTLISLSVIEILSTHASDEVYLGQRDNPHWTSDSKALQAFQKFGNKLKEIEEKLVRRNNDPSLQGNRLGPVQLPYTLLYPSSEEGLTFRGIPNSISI
Method: Soybean lipoxygenase SLOX-1 at pH 9 is used in vitro. During this assay linoleic acid sodium salt is converted to the corresponding 13-hydroperoxide. The reaction is recorded photometrically at 234 nm using the UV-based enzyme assay. […] It is known that soybean LOX inhibitory activity induced by NSAIDs is qualitatively quite similar to the inhibition observed on the rat mast cells LOX and this assay may be used as a qualitative or semi-quantitative screen for such activity.
To a quartz cell, add 790 μL of Tris-HCl pH = 9.0 buffer, 200 μL of plant-derived lipoxygenase solution (1:9 × 10^−4 w/v, in saline), 10 μL of the test compound solution and 100 μL of sodium linoleate solution (3 mM concentration). The absorbance was measured at 234 nm, where the change in absorbance due to the conversion of linoleic acid to […] was recorded. A solution of 790 μL of Tris-HCl pH = 9.0 buffer, 200 μL of a plant-derived lipoxygenase solution (1:9 × 10^−4 w/v, in saline), 10 μL of DMSO and 100 μL of sodium linoleate solution (3 mM concentration) was used as a control.

[4] = Experimental lipophilicity RM by reverse phase thin layer chromatography (RP-TLC); type: physicochemical; settings: methanol-water mobile phase
Method: Lipophilicity is a main physicochemical parameter for bioactive molecules, linking solubility, ligand-target binding interactions, membrane permeability absorption, distribution, bioavailability, metabolism, elimination and toxicological effects (ADMET), playing an important role in biological activity. The experimental values of lipophilicity RM were determined by reverse phase thin layer chromatography. For the experimental determination of lipophilicity the hydrophilic-lipid phase system is a mixture of methanol- water (90/10%). The theoretical lipophilicity values are determined by the Bioloom program (http://biobyte.com/bb/prod/bioloom.html, accessed on 8 April 2024) (Table 1). According to the calculated clog P values, the most lipophilic compounds are 3c, 3d and 3f while the less lipophilic ones are compounds 5a and 5b.
Melting points were determined on a MEL-Temp II (Lab. Devices, Holliston, MA, USA). In vitro tests were carried out using a UV-Vis spectra and recorded on a Perkin-Elmer 554 double-beam spectrophotometer (Perkin-Elmer Corporation Ltd., Lane Beaconsfield, Bucks, UK). Infrared spectra (KBr pellets) were recorded with Perkin-Elmer 597 spectrophotometer (Perkin-Elmer Corporation Ltd., Lane Beaconsfield, Bucks, UK). The ^1H […] Magnetic Resonance (^1H-NMR) spectra were acquired on an Agilent 500/54 (DD2) at 500 MHz in CDCl3 using tetramethylsilane as an internal standard. Agilent 500/54 (DD2) ^13C NMR spectra were acquired at 125 MHz in CDCl3 solutions with tetramethylsilane serving as an internal reference. Coupling constants J are expressed in Hz, and chemical shifts are reported in ppm. Thermo Fisher Scientific Inc., Waltham, MA, USA, used MeOH as the solvent to calculate mass spectra using an LC-PDA-MS Thermo Finnigan system (LC Pump Plus, Autosampler, Surveyor PDA Plus Detector) interfaced with an ESI MSQ Plus (Thermo Finnigan). Thin-layer chromatography using 5554 F254 Silica gel/TLC cards (Merck and Fluka Chemie GmbH Buchs, Steinheim, Switzerland) was used to monitor the reaction progress. Silica gel 60 F254 plates with a diameter of 2 mm were utilized for preparative thin layer chromatography (prep TLC) by Merck KgaA (ICH078057). Merck (20 × 20 cm) plates were used for the experimental assessment of the lipophilicity using reverse phase thin-layer chromatography (RP-TLC) TLC-Silica gel 60 F254 DC Kieselgel.
In this experiment, TLC silica gel 60 F254 1.05715.0001 commercial glass plates from Merck were used. The plates were first immersed in a 5% v/v solution of liquid paraffin in petroleum ether and left for 90 s to become completely impregnated with the stable lipophilic phase. They were then activated by standing for 30 min in an oven at 40 °C and kept there until the time of use. A 70% v/v MeOH/H2O mixture was used as the mobile phase. The mobile phase was saturated with a few drops of liquid paraffin before being used. The spots of the compounds were placed on the plate at a distance of 2 cm from the edges of the plate and also from each other. The development of the spots on the plates was carried out in closed chromatography chambers where the atmosphere is saturated with the mobile phase at room temperature. At the end of development, the solvent-formed front was marked and the plates are dried at 80 °C for about 20–30 min. The appearance of the spots was made under an ultraviolet light lamp. The Rf values were the average of 5–6 measurements for each compound and assuming that the compounds will have been rotated to different positions on the plates. The RM values were calculated from the corresponding Rf values according to the equation [67].RM = log [(1/Rf) − 1](1)

Compound | IC50 [3] | RM ± SD [4] | inhibition at 100 µM [3] | RA%, 100 μM, 20 min (±SD) [1] | RA%, 100 μM, 60 min (±SD) [1] | AAPH% Inhibition, 100 μM (±SD) [2]
CN(C)c1ccc(/C=C/C2=NN(c3ccc(Br)cc3)C(c3ccc(N(C)C)cc3)C2)cc1 (stereo not drawn) [Compound 3e] | 20 µM | 1.25 ± 0.086 |  | 30 ± 0.9% | 53 ± 0.9% | 80 ± 2.9%
Clc1ccc(/C=C/C2=NN(c3ccccc3)C(c3ccc(Cl)cc3)C2)cc1 (stereo not drawn) [Compound 2d] | 2.5 µM | 1.07 ± 0.067 |  | 6 ± 0.4% |  | 75 ± 0.1%
Brc1ccc(N2N=C(/C=C/c3ccccc3)CC2c2ccccc2)cc1 (stereo not drawn) [Compound 3a, (E)-1-(4-bromophenyl)-5-phenyl-3-styryl-4,5-dihydro-1H-pyrazole] |  | 1.11 ± 0.068 | 51 ± 2.2% | 10 ± 0.3% | 22 ± 0.9% | 75 ± 1.4%
Fc1ccc(/C=C/C2=NN(c3ccc(Br)cc3)C(c3ccc(F)cc3)C2)cc1 (stereo not drawn) [Compound 3b] |  | 1.03 ± 0.057 | 17 ± 0.8% | 2 ± 0.1% | 6 ± 0.6% | 63 ± 2.6%
O=C(/C=C/c1ccc(F)cc1)/C=C/c1ccc(F)cc1 [Compound 1b, (1E,4E)-1,5-bis(4-fluorophenyl)-1,4-pentadien-3-one] |  | 0.19 ± 0.001 | 30 ± 0.1% | 13 ± 0.6% | 100 ± 1.1% | 37 ± 0.1%
CN(C)c1ccc(/C=C/C2=NN(c3ccc(C#N)cc3)C(c3ccc(N(C)C)cc3)C2)cc1 (stereo not drawn) [Compound 4e, (E)-4-(5-(4-(dimethylamino)phenyl)-3-(4-(dimethylamino)styryl)-4,5-dihydro-1H-pyrazo-1yl)-benzonitrile] |  | 0.49 ± 0.029 | 6 ± 0.5% | 2 ± 0.1% | 2 ± 0.2% | 74 ± 0.9%
N#Cc1ccc(N2N=C(/C=C/c3ccc(Br)cc3)CC2c2ccc(Br)cc2)cc1 (stereo not drawn) [Compound 4c, (E)-4-(5-(4-bromophenyl)-3-(4-bromostyryl)-4,5-dihydro-1H-pyrazol-1-yl)-benzonitrile] |  | 0.94 ± 0.069 | 17 ± 1.2% | 2 ± 0.1% |  | 59 ± 0.2%

Further lines, with some results ahead:

IC50 [3] | RM ± SD [4] | inhibition at 100 µM [3] | Compound | RA%, 100 μM, 20 min (±SD) [1] | RA%, 100 μM, 60 min (±SD) [1] | AAPH% Inhibition, 100 μM (±SD) [2]
 | 0.17 ± 0.014 | 24 ± 0.8% | CC(=O)N1N=C(/C=C/c2ccccc2)CC1c1ccccc1 (stereo not drawn) [Compound 6a, (E)-5-phenyl-3-styryl-4,5-dihydro-1-H-pyrazol-1-ethan-1-one] | 11 ± 0.6% |  | 22 ± 1%
 | 0.28 ± 0.019 | 19 ± 0.4% | CN(C)c1ccc(/C=C/C2=NN(C(N)=O)C(c3ccc(N(C)C)cc3)C2)cc1 (stereo not drawn) [Compound 5e, (E)-5-(4-dimethylaminophenyl)-3-(4-dimethylaminostyryl)-4,5-dihydro-1H-pyrazole-1-carboxamide] | 20 ± 0.1% |  | 61 ± 0.9%
 | 0.65 ± 0.048 | 42 ± 2.7% | CC(=O)N1N=C(/C=C/c2ccc(Cl)cc2)CC1c1ccc(Cl)cc1 (stereo not drawn) [Compound 6d, (E)-5-(4-chlorophenyl)-3-(4-chlorostyryl)-4,5-dihydro-1-H-pyrazol-1-ethan-1-one] |  | 8 ± 0.7% | 67 ± 0.4%
